Experimental data published in the supplement of paper PMC8882468.
± gives the standard deviation of the averaged measurements.

Experiments:
Assay in all cases: CTG-3D luminescence at 96 h relative to day-0 seeding control (ratio to day 0); higher = more growth / less cytotoxicity; PDxO 3D drug screen, 96 h, CTG-3D normalised to day-0 seeding control.
HCI-002 = test system: HCI-002 (organoid from a triple-negative breast cancer xenograft)
HCI-010 = test system: HCI-010 (organoid from a breast cancer xenograft)
HCI-011.E2 = test system: HCI-011.E2 (organoid from an ER-positive breast cancer xenograft)
HCI-015 = test system: HCI-015 (organoid from a triple-negative breast cancer xenograft)
HCI-023 = test system: HCI-023 (organoid from a triple-negative breast cancer xenograft)

CS(=O)(=O)c1ccc(C(=O)Nc2ccc(Cl)c(-c3ccccn3)c2)c(Cl)c1 [vismodegib]
CTG-3D luminescence at 96 h
Conditions | 12.5 pM | 0.00025 µM | 0.005 µM | 0.1 µM | 1 µM | 10 µM | 100 µM | 625 fM
HCI-002, days in culture: 62 | 2.81 | 2.88 | 3.64 | 3.26 | 3.05 | 2.96 | 0.385 | 3.01
HCI-002, days in culture: 82 | 3.27 | 3.52 | 2.41 | 2.65 | 2.51 | 2.14 | 0.287 | 2.86
HCI-002, days in culture: 91 | 2.97 | 2.4 | 2.04 | 2.06 | 1.77 | 2.07 | 0.194 | 2.53
HCI-002, days in culture: 191 | 3.3 | 3.25 | 3.31 | 3.23 | 3.62 | 2.89 | 0.429 | 3.41
HCI-002, days in culture: 209 | 2.66 | 2.86 | 2.57 | 2.3 | 2.77 | 2.31 | 0.207 | 2.71
HCI-002, days in culture: 227 | 4.93 | 4.4 | 3.59 | 4.14 | 3.49 | 4.34 | 0.447 | 5.19
HCI-010, days in culture: 52 | 1.83 | 1.98 | 2.08 | 2.26 | 2.4 | 2.15 | 0.825 | 1.78
HCI-010, days in culture: 65 | 1.54 | 1.74 | 1.56 | 1.6 | 1.71 | 1.5 | 0.574 | 1.59
HCI-010, days in culture: 103 | 2.84 | 3.06 | 3 | 3.14 | 2.91 | 2.62 | 1.52 | 2.8
HCI-011.E2, days in culture: 74 | 2.31 | 1.93 | 1.98 | 2.31 | 2.12 | 3.48 | 1.49 | 2.36
HCI-015, days in culture: 172 | 2.23 | 2 | 1.97 | 1.34 | 1.97 | 1.25 | 0.214 | 3.01
HCI-015, days in culture: 191 | 2.65 | 1.16 | 1.77 | 1.1 | 1.7 | 1.15 | 0.207 | 1.54
HCI-015, days in culture: 218 | 1.6 | 1.48 | 1.63 | 1.61 | 1.73 | 1.61 | -0.148 | 2
HCI-023, days in culture: 111 | 1.92 | 1.62 | 1.41 | 1.48 | 1.15 | 1.34 | 0.248 | 1.6
HCI-023, days in culture: 128 | 1.29 ± 0.17 | 1.4 ± 0.25 | 1.39 ± 0.23 | 1.46 ± 0.69 | 1.31 ± 0.19 | 1.86 ± 0.42 | 0.552 ± 0.047 | 1.67 ± 0.22

HCI-011.E2
Conditions | CTG-3D luminescence at 96 h
12.5 pM | 1.44 ± 0.087
0.00025 µM | 1.41 ± 0.3
0.005 µM | 1.58 ± 0.23
0.1 µM | 1.72 ± 0.5
1 µM | 1.61 ± 0.78
10 µM | 1.85 ± 0.35
100 µM | 1.13 ± 0.33
625 fM | 1.67 ± 0.57

Cc1nc(-c2cn3c(n2)-c2ccc(-c4cnn(C(C)(C)C(N)=O)c4)cc2OCC3)n(C(C)C)n1 [taselisib]
CTG-3D luminescence at 96 h
Conditions | 12.5 pM | 0.00025 µM | 0.005 µM | 0.1 µM | 1 µM | 10 µM | 100 µM | 625 fM
HCI-002, days in culture: 62 | 2.78 | 2.75 | 2.69 | 2.06 | 1.75 | 1.12 | 0.0194 | 3.01
HCI-002, days in culture: 82 | 2.76 | 2.9 | 2.23 | 2.39 | 1.79 | 1.08 | 0.0159 | 3.2
HCI-002, days in culture: 91 | 3.66 | 3.28 | 2.4 | 2.4 | 1.64 | 1.32 | 0.0254 | 3.59
HCI-002, days in culture: 191 | 2.84 | 2.45 | 2.55 | 2.13 | 2.1 | 0.981 | 0.137 | 2.84
HCI-002, days in culture: 209 | 2.15 | 2.3 | 2.09 | 1.75 | 1.5 | 0.726 | 0.0139 | 2.45
HCI-002, days in culture: 227 | 4.99 | 5.28 | 4.54 | 3.54 | 2.79 | 1.69 | 0.0558 | 5.91
HCI-010, days in culture: 52 | 2.17 | 2.09 | 1.97 | 2.31 | 1.65 | 0.735 | 0.0132 | 2.15
HCI-010, days in culture: 65 | 1.89 | 1.84 | 1.88 | 1.78 | 1.24 | 0.457 | 0.00794 | 1.82
HCI-010, days in culture: 103 | 3.55 | 3.66 | 3.45 | 3.46 | 2.33 | 0.906 | 0.0169 | 2.92
HCI-011.E2, days in culture: 74 | 2.48 | 2.64 | 1.33 | 0.778 | 0.432 | 0.326 | 0.711 | 2.81
HCI-015, days in culture: 172 | 2.38 | 1.78 | 2.27 | 1.48 | 1.4 | 0.489 | 0.178 | 3.06
HCI-015, days in culture: 191 | 2.01 | 1.36 | 1.67 | 0.905 | 1.12 | 0.541 | 0.0414 | 1.56
HCI-015, days in culture: 218 | 2.32 | 1.88 | 1.69 | 1.55 | 0.988 | 0.617 | 0.0074 | 2.08
HCI-023, days in culture: 111 | 1.53 | 1.41 | 1.4 | 0.966 | 0.707 | 0.842 | 0.0187 | 1.35
HCI-023, days in culture: 128 | 1.9392 ± 0.00075 | 1.52 ± 0.045 | 1.88 ± 0.15 | 1.68 ± 0.46 | 1.2 ± 0.14 | 1.18 ± 0.18 | 0.33 ± 0.041 | 1.86 ± 0.12

HCI-011.E2
Conditions | CTG-3D luminescence at 96 h
12.5 pM | 1.44 ± 0.089
0.00025 µM | 1.59 ± 0.33
0.005 µM | 1.07 ± 0.17
0.1 µM | 0.776 ± 0.084
1 µM | 0.369 ± 0.19
10 µM | 0.212 ± 0.055
100 µM | 0.527 ± 0.092
625 fM | 1.51 ± 0.34
